Results taken from the supplement of paper PMC13380429.

Assays:
Conditions in all cases: 72 h
Calu-3 [1] = assay: drug sensitivity score (DSS) for viability; higher = more toxic; extreme values may be limits of the assay
HepG2 [2] = assay: as above
U2OS [3] = assay: as above
Vero E6 [4] = assay: as above
Caco-2 [5] = assay: as above
Calu-3 [6] = assay: relative viability EC50 (midpoint between 100% and the lowest measured viability); higher = less toxic
HepG2 [7] = assay: as above
U2OS [8] = assay: as above
Vero E6 [9] = assay: as above
Caco-2 [10] = assay: as above
Calu-3 [11] = assay: cell viability relative to DMSO; higher = less toxic
HepG2 [12] = assay: as above
U2OS [13] = assay: as above
Vero E6 [14] = assay: as above
Caco-2 [15] = assay: as above

SMILES | drug sensitivity score (Calu-3 [1]) | drug sensitivity score (HepG2 [2]) | drug sensitivity score (U2OS [3]) | drug sensitivity score (Vero E6 [4]) | drug sensitivity score (Caco-2 [5]) | relative viability EC50 (Calu-3 [6]) | relative viability EC50 (HepG2 [7]) | relative viability EC50 (U2OS [8]) | relative viability EC50 (Vero E6 [9]) | relative viability EC50 (Caco-2 [10]) | cell viability (Calu-3 [11]; 1 nM) | cell viability (Calu-3 [11]; 10 nM) | cell viability (Calu-3 [11]; 100 nM) | cell viability (Calu-3 [11]; 1000 nM) | cell viability (Calu-3 [11]; 10000 nM) | cell viability (HepG2 [12]; 1 nM) | cell viability (HepG2 [12]; 10 nM) | cell viability (HepG2 [12]; 100 nM) | cell viability (HepG2 [12]; 1000 nM) | cell viability (HepG2 [12]; 10000 nM) | cell viability (U2OS [13]; 1 nM) | cell viability (U2OS [13]; 10 nM) | cell viability (U2OS [13]; 100 nM) | cell viability (U2OS [13]; 1000 nM) | cell viability (U2OS [13]; 10000 nM) | cell viability (Vero E6 [14]; 1 nM) | cell viability (Vero E6 [14]; 10 nM) | cell viability (Vero E6 [14]; 100 nM) | cell viability (Vero E6 [14]; 1000 nM) | cell viability (Vero E6 [14]; 10000 nM) | cell viability (Caco-2 [15]; 1 nM) | cell viability (Caco-2 [15]; 10 nM) | cell viability (Caco-2 [15]; 100 nM) | cell viability (Caco-2 [15]; 1000 nM) | cell viability (Caco-2 [15]; 10000 nM)
Nc1ncnc2c1ncn2[C@@H]1O[C@H](COP(=O)(O)OP(=O)(O)OP(=O)(O)O)[C@@H](O)[C@H]1O [ADENOSINE TRIPHOSPHATE DISODIUM] | 0 | 0 | 0 | 0 | 0 | > 10 µM | > 10 µM | > 10 µM | > 10 µM | > 10 µM | 97% | 96.6% | 104% | 95.3% | 110% | 101% | 100% | 106% | 93.2% | 98.4% | 93.8% | 97.9% | 93.3% | 101% | 110% | 91.9% | 90.5% | 90.6% | 90.2% | 106% | 95.3% | 103% | 99.5% | 97.1% | 105%
Cc1onc(-c2c(Cl)cccc2Cl)c1C(=O)N[C@@H]1C(=O)N2[C@@H]1SC(C)(C)[C@@H]2C(=O)O [dicloxacillin] | 0 | 0 | 0 | 0 | 0 | > 10 µM | > 10 µM | > 10 µM | > 10 µM | > 10 µM | 98.2% | 84.7% | 96% | 97.6% | 98.9% | 97.5% | 98.1% | 106% | 100% | 110% | 95.6% | 99.9% | 93.7% | 97.9% | 94.9% | 99.4% | 97.7% | 102% | 94.1% | 96.3% | 100% | 99.6% | 93.3% | 98.2% | 101%
C[N+]1(C)CCC(=C(c2ccccc2)c2ccccc2)CC1 [diphemanil] | 0 | 0 | 0 | 0 | 0 | > 10 µM | > 10 µM | > 10 µM | > 10 µM | > 10 µM | 95.3% | 107% | 110% | 96.1% | 102% | 113% | 98.1% | 108% | 97.6% | 110% | 101% | 99.7% | 95.5% | 97.7% | 97.4% | 105% | 108% | 103% | 99.9% | 102% | 97.2% | 100% | 95.7% | 101% | 93.6%
C[N+]12CCCCC1CCC(=C(c1cccs1)c1cccs1)C2 (stereo unspecified) [tiquizium] | 0 | 0 | 0 | 0 | 0 | > 10 µM | > 10 µM | > 10 µM | > 10 µM | > 10 µM | 100% | 102% | 97.8% | 111% | 99% | 103% | 86.9% | 98.9% | 93.7% | 94% | 98.1% | 99.2% | 94.3% | 103% | 102% | 106% | 88.6% | 98.3% | 87% | 100% | 89.3% | 96.3% | 89.7% | 90.3% | 100%
COCCN(C(=O)c1cc(OC)c(OC)c(OC)c1)c1nc(-c2ccccc2)cs1 [eact] | 0.4 | 0 | 0 | 0 | 0.1 | > 10 µM | > 10 µM | > 10 µM | > 10 µM | > 10 µM | 107% | 96.2% | 94.1% | 92.8% | 85.1% | 107% | 95.6% | 104% | 104% | 92.5% | 102% | 97% | 100% | 96.1% | 106% | 94.4% | 104% | 90.4% | 96.6% | 97.5% | 103% | 84.3% | 96.2% | 88.9% | 90.9%
O=P(O)(O)C(Cl)(Cl)P(=O)(O)O [clodronic-acid] | 0 | 0 | 0 | 0 | 0 | > 10 µM | > 10 µM | > 10 µM | > 10 µM | > 10 µM | 94.3% | 97.1% | 96.5% | 96.1% | 109% | 99.2% | 96.6% | 98.6% | 101% | 102% | 99.4% | 102% | 105% | 101% | 103% | 108% | 103% | 97.7% | 101% | 99.1% | 98% | 103% | 96.3% | 100% | 100%
O=C(NCCCN1CCCCCC1)C(c1ccccc1)C1CCCCC1 (stereo unspecified) | 0 | 1 | 0 | 0 | 0 | > 10 µM | > 10 µM | > 10 µM | > 10 µM | > 10 µM | 111% | 94.1% | 102% | 104% | 98.8% | 107% | 107% | 100% | 89% | 84.7% | 104% | 101% | 101% | 106% | 95.7% | 95.8% | 96.1% | 96.5% | 99.6% | 94.9% | 101% | 101% | 105% | 107% | 95%
CC[C@H]1[C@@H]2C[C@H]3[C@@H]4N(C)c5ccccc5[C@]45C[C@@H]([C@@H]2[C@H]5O)N3[C@@H]1O [ajmaline] | 0 | 0 | 0 | 0 | 0.1 | > 10 µM | > 10 µM | > 10 µM | > 10 µM | > 10 µM | 101% | 108% | 91.9% | 104% | 108% | 92% | 90% | 95% | 105% | 94.7% | 96% | 101% | 95.7% | 102% | 97.5% | 96.1% | 95% | 105% | 99.5% | 88.9% | 101% | 94% | 94.9% | 90.6% | 88%
COc1ccc2cccc(N3CCN(CCNC(=O)c4ccc(F)cc4)CC3)c2c1 | 0.2 | 0 | 0 | 0 | 0.3 | > 10 µM | > 10 µM | > 10 µM | > 10 µM | > 10 µM | 96.6% | 105% | 104% | 106% | 83% | 99.2% | 98.9% | 97.4% | 95.4% | 89.5% | 95.7% | 103% | 92.7% | 96.4% | 90.4% | 103% | 104% | 97.5% | 94% | 89.3% | 98.3% | 95.3% | 98.3% | 90.6% | 86.2%
CCCCCCCCCCCCCCCC(=O)OC[C@@H](NC(=O)C(Cl)Cl)[C@H](O)c1ccc([N+](=O)[O-])cc1 [chloramphenicol-palmitate] | 0 | 0.2 | 0 | 0 | 0 | > 10 µM | > 10 µM | > 10 µM | > 10 µM | > 10 µM | 97.3% | 95.6% | 95.2% | 97% | 102% | 98.1% | 101% | 103% | 92.4% | 88.6% | 105% | 99.6% | 102% | 104% | 100% | 107% | 107% | 102% | 97.2% | 99.3% | 111% | 102% | 99% | 95.1% | 95.3%
CCOC(=O)c1ccc(OC(=O)CCCCCNC(=N)N)cc1 [gabexate] | 1.4 | 0 | – | 0 | 0 | > 10 µM | > 10 µM | – | > 10 µM | > 10 µM | 88.1% | 95.9% | 84.8% | 86.9% | 87.1% | 97.1% | 115% | 96.9% | 95.6% | 103% | – | – | – | – | – | 101% | 104% | 98% | 98.4% | 100% | 94.2% | 95.6% | 99.2% | 95.2% | 89.4%
CCC1(C2=NCCN2)Cc2ccccc2O1 (stereo unspecified) [efaroxan] | 0 | – | 0 | 0 | 0 | > 10 µM | – | > 10 µM | > 10 µM | > 10 µM | 109% | 93.4% | 109% | 101% | 110% | – | – | – | – | – | 107% | 107% | 101% | 95.8% | 101% | 102% | 101% | 101% | 98.4% | 106% | 102% | 96.7% | 97.1% | 90.4% | 98.7%
C[C@@H]([C@H](O)c1ccc(O)cc1)N1CCC(Cc2ccccc2)CC1 (racemic) [ifenprodil] | 0.6 | 0.3 | 0 | 0 | 0 | > 10 µM | > 10 µM | > 10 µM | > 10 µM | > 10 µM | 99.4% | 96.5% | 92% | 91.8% | 84.1% | 103% | 99.5% | 104% | 92.8% | 88.2% | 103% | 101% | 99.9% | 102% | 98.5% | 101% | 103% | 102% | 98.8% | 97.6% | 96.8% | 101% | 96.1% | 98% | 89.8%
C[C@@H](NCc1cc(Br)cc2nc(O)c(O)nc12)P(=O)(O)O | 0 | 0 | 0 | 0 | 0 | > 10 µM | > 10 µM | > 10 µM | > 10 µM | > 10 µM | 103% | 86% | 81% | 110% | 102% | 94.2% | 94% | 99.4% | 93.3% | 89.2% | 107% | 97.2% | 96.6% | 92.5% | 98.4% | 105% | 105% | 103% | 98.8% | 96.1% | 97% | 100% | 109% | 94.4% | 97.5%
